Key:
[1] = molecular target: T1, recombinant human ULK1 protein (1-649) (Homo sapiens, UniProt O75385); assay: ULK1 inhibition assay (ADP-Glo); format: biochemical; conditions: 2 ug/mL ULK1, 80 ug/mL myelin basic protein, 25 uM ATP, assessed after one hour
T1 construct: recombinant human ULK1 protein (1-649, SignalChem #U01-11G); purchased SignalChem U01-11G
T1 sequence (O75385 1-649): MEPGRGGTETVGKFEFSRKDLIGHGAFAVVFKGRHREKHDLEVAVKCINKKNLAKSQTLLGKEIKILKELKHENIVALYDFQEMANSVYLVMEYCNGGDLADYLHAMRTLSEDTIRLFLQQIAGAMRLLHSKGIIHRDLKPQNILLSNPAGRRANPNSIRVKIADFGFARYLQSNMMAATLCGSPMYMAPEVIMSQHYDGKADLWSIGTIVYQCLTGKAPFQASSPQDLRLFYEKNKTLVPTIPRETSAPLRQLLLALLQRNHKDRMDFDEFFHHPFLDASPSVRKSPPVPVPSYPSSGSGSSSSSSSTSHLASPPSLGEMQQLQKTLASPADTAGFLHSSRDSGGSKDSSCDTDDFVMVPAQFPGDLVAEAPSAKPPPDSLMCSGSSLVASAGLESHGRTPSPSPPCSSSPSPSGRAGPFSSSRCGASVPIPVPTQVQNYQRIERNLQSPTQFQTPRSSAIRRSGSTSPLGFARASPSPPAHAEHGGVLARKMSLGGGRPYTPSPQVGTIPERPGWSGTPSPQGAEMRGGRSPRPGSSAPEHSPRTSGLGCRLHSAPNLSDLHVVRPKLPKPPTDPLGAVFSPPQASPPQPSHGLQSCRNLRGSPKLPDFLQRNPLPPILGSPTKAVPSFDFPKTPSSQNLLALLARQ
Method: IC50s measured by ADP-Glo assay are represented nM, with A representing IC50<20 nM, B representing IC50>20 nM. NT indicates the compound was not tested. ULK1 inhibition assays were performed in a 5 uL reaction volume containing 2 ug/mL recombinant human ULK1 protein (1-649, SignalChem #U01-11G) and 80 ug/mL myelin basic protein (MBP, Sigma-Aldrich #M1891) in the presence of 25 uM ATP (Sigma-Aldrich A7699). ULK 1 inhibition was assessed after one hour. Compounds were tested in triplicate in a 16-dose IC50 mode with 3-fold serial dilution and a starting dose of 30 uM. Staurosporine, a non-selective protein kinase inhibitor, was used in the assay as a positive control. Three separate experiments were carried out.

[2] = molecular target: T2, NanoLuc-ULK1 fusion in HEK293T cells (Homo sapiens, UniProt O75385); assay: ULK1 NanoBRET assay; format: cell-based; conditions: HEK293T transfected with NanoLuc-ULK1 Fusion Vector, Tracer K-5, 2 h incubation
T2 construct: host or cells: HEK293T
T2 sequence (O75385 1-1050): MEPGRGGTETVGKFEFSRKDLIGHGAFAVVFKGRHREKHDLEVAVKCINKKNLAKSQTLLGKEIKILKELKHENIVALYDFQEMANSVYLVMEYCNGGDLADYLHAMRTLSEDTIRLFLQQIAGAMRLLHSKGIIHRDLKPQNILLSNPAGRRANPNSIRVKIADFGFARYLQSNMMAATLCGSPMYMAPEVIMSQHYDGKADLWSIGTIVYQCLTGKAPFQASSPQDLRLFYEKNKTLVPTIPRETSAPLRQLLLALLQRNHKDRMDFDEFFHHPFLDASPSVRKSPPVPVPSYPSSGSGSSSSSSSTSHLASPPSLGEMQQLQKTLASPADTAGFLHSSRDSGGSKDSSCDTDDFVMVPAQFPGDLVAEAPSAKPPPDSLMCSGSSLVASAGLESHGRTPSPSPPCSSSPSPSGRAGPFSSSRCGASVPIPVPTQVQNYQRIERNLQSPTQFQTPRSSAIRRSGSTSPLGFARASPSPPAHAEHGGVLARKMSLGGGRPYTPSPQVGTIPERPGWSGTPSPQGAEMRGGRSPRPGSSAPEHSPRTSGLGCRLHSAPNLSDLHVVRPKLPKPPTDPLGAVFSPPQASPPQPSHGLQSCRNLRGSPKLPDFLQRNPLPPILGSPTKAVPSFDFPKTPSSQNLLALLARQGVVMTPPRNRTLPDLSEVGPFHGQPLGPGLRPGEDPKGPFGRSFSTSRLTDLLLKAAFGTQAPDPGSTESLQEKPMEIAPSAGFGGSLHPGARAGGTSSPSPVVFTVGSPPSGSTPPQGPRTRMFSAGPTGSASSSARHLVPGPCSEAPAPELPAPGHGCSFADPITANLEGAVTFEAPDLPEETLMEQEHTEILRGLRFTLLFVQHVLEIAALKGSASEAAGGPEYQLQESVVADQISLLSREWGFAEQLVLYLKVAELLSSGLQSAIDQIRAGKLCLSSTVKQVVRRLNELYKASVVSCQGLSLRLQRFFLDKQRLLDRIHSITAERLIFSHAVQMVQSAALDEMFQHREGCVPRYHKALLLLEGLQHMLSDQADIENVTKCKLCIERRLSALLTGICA
Method: IC50s were also measured by ULK1 NanoBRET assay according to the following protocol: Human embryonic kidney cells (HEK293T) were transfected with NanoLuc®-ULK1 Fusion Vector (Promega #NV2211) using jetPRIME transfection reagent (Polyplus Transfection #114-15). Following 24 h, cells were trypsinized and resuspended in Opti-MEM® I (1×), Reduced Serum Medium (Gibco, #11058-021). Approximately, 7,000 cells per well (in 34 μL total volume) were replated into non-binding surface 384 well plates. Complete NanoBRET 20× Tracer K-5 reagent was prepared according to the manufacturer's directions and 2 μL were added to each well of the 384 plate (assay plate). The assay plate was mixed on an orbital shaker for 15 seconds at 700 rpm. Compounds were serially diluted at 200× final concentration in […], then diluted to 10× final concentration in assay media (Opti-MEM® I, Reduced Serum Medium). Next, 4 μL 10× test compounds were added to each well of the assay plate, followed by mixing at 700 rpm for 15 seconds. The assay plate was incubated for 2 h in a 37 C incubator with […] and then equilibrated to RT for 15 min. The 3× Complete Substrate plus Inhibitor Solution was prepared according to the manufacturer's directions with a concentration of Extracellular NanoLuc® Inhibitor of 60 μM to be used at a working concentration of 20 μM. The 3× Complete Substrate plus Inhibitor Solution was mixed and 20 μL per well was added to the assay plate and incubated at RT for 2-3 min. Donor emission wavelength (450 nm) and acceptor emission wavelength (610 nm) were measured using an assay compatible luminometer (see manufacturer's specifications).

| SMILES | IC50 [1] [nM] | IC50 [2] [nM] |
| --- | --- | --- |
| CNC(=O)c1ccc2cc1Nc1nc(ncc1C(F)(F)F)Nc1ccc(OC)c(c1)OC/C=C\CCCO2 [Compound 12, (E)-1^4-methoxy-N-methyl-35-(trifluoromethyl)-6,13-dioxa-2,4-diaza-3(2,4)-pyrimidina-1,5(1,3)-dibenzenacyclotridecaphan-10-ene-5^6-carboxamide] | > 20 | > 1000 |
| C=CCCOc1ccc(Nc2nc(Nc3ccc(OCC=C)c(OC)c3)ncc2Br)c(C(=O)NC)c1 [Compound 11] | > 20 |  |
| CNC(=O)c1ccc2cc1Nc1nc(ncc1C(F)(F)F)Nc1ccc(c(OC)c1)OCCCCCCO2 [Compound 17, 5^3-Methoxy-N-methyl-3^5-(trifluoromethyl)-6,13-dioxa-2,4-diaza-3(4,2)-pyrimidina-1(1,3),5 (1,4)-dibenzenacyclotridecaphane-16-carboxamide] | > 20 | > 1000 |
| C=CCCCOc1ccc(Nc2nc(Nc3ccc(OCC=C)c(OC)c3)ncc2C(F)(F)F)c(C(=O)NC)c1 [Compound 5, 2-((2-((4-(Allyloxy)-3-methoxyphenyl)amino)-5-(trifluoromethyl)pyrimidin-4-yl)amino)-N-methyl-5-(pent-4-en-1-yloxy)benzamide] | > 20 | > 1000 |
| CNC(=O)c1ccc2cc1OCCCCCOc1ccc(cc1OC)Nc1ncc(C(F)(F)F)c(n1)N2 [Compound 25, 5^3-Methoxy-N-methyl-3^5-(trifluoromethyl)-6,12-dioxa-2,4-diaza-3(4,2)-pyrimidina-1(1,3), 5(1,4)-dibenzenacyclododecaphane-1^6-carboxamide] | > 20 | > 1000 |
| CNC(=O)c1cc2ccc1Nc1nc(ncc1C(F)(F)F)Nc1ccc(c(OC)c1)OC/C=C/CCO2 [Compound 3, (E)-1^3-methoxy-N-methyl-3^5-(trifluoromethyl)-6,12-dioxa-2,4-diaza-3(2,4)-pyrimidina-1,5(1,4)-dibenzenacyclododecaphan-9-ene-5^2-carboxamide] | > 20 | < 1000 |
| CNC(=O)c1ccc2cc1Nc1nc(ncc1C(F)(F)F)Nc1ccc(OC)c(c1)OC/C=C/CCCO2 [Compound 13, (Z)-1^4-methoxy-N-methyl-35-(trifluoromethyl)-6,13-dioxa-2,4-diaza-3(2,4)-pyrimidina-1,5(1,3)-dibenzenacyclotridecaphan-10-ene-5^6-carboxamide] | > 20 | > 1000 |
| CNC(=O)c1cc2ccc1Nc1nc(ncc1C(F)(F)F)Nc1ccc(c(OC)c1)OC/C=C\CCO2 [Compound 4, (Z)-1^3-methoxy-N-methyl-3^5-(trifluoromethyl)-6,12-dioxa-2,4-diaza-3(2,4)-pyrimidina-1,5(1,4)-dibenzenacyclododecaphan-9-ene-5^2-carboxamide] | > 20 | < 1000 |

Further lines, results first:

| IC50 [1] [nM] | IC50 [2] [nM] | SMILES |
| --- | --- | --- |
| > 20 |  | C=CCCOc1ccc(Nc2nc(Nc3ccc(OCC=C)c(OC)c3)ncc2C(F)(F)F)c(C(=O)NC)c1 [Compound 2, 2-((2-((4-(Allyloxy)-3-methoxyphenyl)amino)-5-(trifluoromethyl)pyrimidin-4-yl)amino)-5-(but-3-en-1-yloxy)-N-methylbenzamide] |
| < 20 | < 1000 | CNC(=O)c1cc2ccc1Nc1nc(ncc1C(F)(F)F)Nc1ccc(OC)c(c1)OC/C=C/CCO2 [Compound 9, (E/Z)-1^4-Methoxy-N-methyl-3^5-(trifluoromethyl)-6,12-dioxa-2,4-diaza-3(2,4)-pyrimidina-1(1,3),5(1,4)-dibenzenacyclododecaphan-9-ene-5^2-carboxamide] |
| < 20 | > 1000 | CNC(=O)c1cc2ccc1Nc1nc(ncc1C(F)(F)F)Nc1ccc(OC)c(c1)OCCCCCO2 [Compound 10, 1^4-Methoxy-N-methyl-3^5-(trifluoromethyl)-6,12-dioxa-2,4-diaza-3(2,4)-pyrimidina-1(1,3), 5(1,4)-dibenzenacyclododecaphane-5^2-carboxamide] |
| < 20 |  | CNC(=O)c1cc2ccc1Nc1nc(ncc1C(F)(F)F)Nc1ccc(c(OC)c1)OCCCCCCO2 [Compound 7, 1^3-Methoxy-N-methyl-3^5-(trifluoromethyl)-6,13-dioxa-2,4-diaza-3(2,4)-pyrimidina-1,5(1,4)-dibenzenacyclotridecaphane-5^2-carboxamide] |
| < 20 | > 1000 | CNC(=O)c1cc2ccc1Nc1nc(ncc1C(F)(F)F)Nc1ccc(OC)c(c1)OC/C=C/CCCO2 [Compound 18, (E)-1^4-methoxy-N-methyl-3^5-(trifluoromethyl)-6,13-dioxa-2,4-diaza-3(2,4)-pyrimidina-1(1,3),5(1,4)-dibenzenacyclotridecaphan-10-ene-5^2-carboxamide] |
| < 20 | > 1000 | CNC(=O)c1cc2ccc1Nc1nc(ncc1C(F)(F)F)Nc1ccc(c(OC)c1)OCCCCCO2 [Compound 1, 1^3-Methoxy-N-methyl-3^5-(trifluoromethyl)-6,12-dioxa-2,4-diaza-3(2,4)-pyrimidina-1,5(1,4)-dibenzenacyclododecaphane-5^2-carboxamide] |
| < 20 | < 1000 | CNC(=O)c1cc2ccc1Nc1nc(ncc1C(F)(F)F)Nc1ccc(c(OC)c1)OC/C=C/CCCO2 [Compound 6, (E/Z)-1^3-Methoxy-N-methyl-3^5-(trifluoromethyl)-6,13-dioxa-2,4-diaza-3(2,4)-pyrimidina-1,5(1,4)-dibenzenacyclotridecaphan-10-ene-5^2-carboxamide] |
| < 20 |  | C=CCCOc1ccc(Nc2nc(Nc3ccc(OC)c(OCC=C)c3)ncc2C(F)(F)F)c(C(=O)NC)c1 [Compound 8, 2-((2-((3-(Allyloxy)-4-methoxyphenyl)amino)-5-(trifluoromethyl)pyrimidin-4-yl)amino)-5-(but-3-en-1-yloxy)-N-methylbenzamide] |

Reference: patent US12594277B2, “Macrocyclic ULK1/2 inhibitors” (SALK INSTITUTE FOR BIOLOGICAL STUDIES, priority 2020, dated 2026)
